Results on twelve compounds are retold here after ChEMBL document CHEMBL5214956, “Structure-based design and modular synthesis of novel PI4K class II inhibitors bearing a 4-aminoquinazoline scaffold” (Bioorg Med Chem Lett, 2022).

As a reminder, the IC50 is the concentration at which inhibition is half-maximal.

Test [1] has as its target Phosphatidylinositol 4-kinase alpha (Homo sapiens, UniProt P42356). Kind of test: Inhibition of PI4KA catalytic domain (unknown origin) assessed as enzyme residual activity incubated for 60 mins using ATP as substrate by ATP-Glo luminescent assay.
The target of test [2] is Phosphatidylinositol 4-kinase beta (Homo sapiens, UniProt Q9UBF8). Kind of test: Inhibition of PI4KB catalytic domain (unknown origin) assessed as enzyme residual activity incubated for 60 mins using ATP as substrate by ATP-Glo luminescent assay.
The target of test [3] is Phosphatidylinositol 4-kinase type 2-alpha (Homo sapiens, UniProt Q9BTU6). Kind of test: Inhibition of PI4K2A catalytic domain (unknown origin) assessed as enzyme residual activity incubated for 60 mins using ATP as substrate by ATP-Glo luminescent assay.
Phosphatidylinositol 4-kinase type 2-alpha, sequence (Q9BTU6 whole entry, the tested form may be a part): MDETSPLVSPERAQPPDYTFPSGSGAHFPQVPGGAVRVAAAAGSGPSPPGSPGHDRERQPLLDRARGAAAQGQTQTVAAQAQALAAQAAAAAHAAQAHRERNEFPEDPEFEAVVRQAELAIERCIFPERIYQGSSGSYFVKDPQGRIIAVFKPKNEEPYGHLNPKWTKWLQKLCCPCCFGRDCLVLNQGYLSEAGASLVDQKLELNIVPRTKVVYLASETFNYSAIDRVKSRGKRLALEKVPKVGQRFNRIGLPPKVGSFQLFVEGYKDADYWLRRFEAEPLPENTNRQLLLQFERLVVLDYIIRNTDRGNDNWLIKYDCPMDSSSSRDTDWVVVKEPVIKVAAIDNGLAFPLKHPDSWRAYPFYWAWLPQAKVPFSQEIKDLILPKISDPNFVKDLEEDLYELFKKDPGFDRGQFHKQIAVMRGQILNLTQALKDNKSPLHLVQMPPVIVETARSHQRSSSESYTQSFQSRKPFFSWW

Phosphatidylinositol 4-kinase alpha, sequence (P42356 whole entry, the tested form may be a part): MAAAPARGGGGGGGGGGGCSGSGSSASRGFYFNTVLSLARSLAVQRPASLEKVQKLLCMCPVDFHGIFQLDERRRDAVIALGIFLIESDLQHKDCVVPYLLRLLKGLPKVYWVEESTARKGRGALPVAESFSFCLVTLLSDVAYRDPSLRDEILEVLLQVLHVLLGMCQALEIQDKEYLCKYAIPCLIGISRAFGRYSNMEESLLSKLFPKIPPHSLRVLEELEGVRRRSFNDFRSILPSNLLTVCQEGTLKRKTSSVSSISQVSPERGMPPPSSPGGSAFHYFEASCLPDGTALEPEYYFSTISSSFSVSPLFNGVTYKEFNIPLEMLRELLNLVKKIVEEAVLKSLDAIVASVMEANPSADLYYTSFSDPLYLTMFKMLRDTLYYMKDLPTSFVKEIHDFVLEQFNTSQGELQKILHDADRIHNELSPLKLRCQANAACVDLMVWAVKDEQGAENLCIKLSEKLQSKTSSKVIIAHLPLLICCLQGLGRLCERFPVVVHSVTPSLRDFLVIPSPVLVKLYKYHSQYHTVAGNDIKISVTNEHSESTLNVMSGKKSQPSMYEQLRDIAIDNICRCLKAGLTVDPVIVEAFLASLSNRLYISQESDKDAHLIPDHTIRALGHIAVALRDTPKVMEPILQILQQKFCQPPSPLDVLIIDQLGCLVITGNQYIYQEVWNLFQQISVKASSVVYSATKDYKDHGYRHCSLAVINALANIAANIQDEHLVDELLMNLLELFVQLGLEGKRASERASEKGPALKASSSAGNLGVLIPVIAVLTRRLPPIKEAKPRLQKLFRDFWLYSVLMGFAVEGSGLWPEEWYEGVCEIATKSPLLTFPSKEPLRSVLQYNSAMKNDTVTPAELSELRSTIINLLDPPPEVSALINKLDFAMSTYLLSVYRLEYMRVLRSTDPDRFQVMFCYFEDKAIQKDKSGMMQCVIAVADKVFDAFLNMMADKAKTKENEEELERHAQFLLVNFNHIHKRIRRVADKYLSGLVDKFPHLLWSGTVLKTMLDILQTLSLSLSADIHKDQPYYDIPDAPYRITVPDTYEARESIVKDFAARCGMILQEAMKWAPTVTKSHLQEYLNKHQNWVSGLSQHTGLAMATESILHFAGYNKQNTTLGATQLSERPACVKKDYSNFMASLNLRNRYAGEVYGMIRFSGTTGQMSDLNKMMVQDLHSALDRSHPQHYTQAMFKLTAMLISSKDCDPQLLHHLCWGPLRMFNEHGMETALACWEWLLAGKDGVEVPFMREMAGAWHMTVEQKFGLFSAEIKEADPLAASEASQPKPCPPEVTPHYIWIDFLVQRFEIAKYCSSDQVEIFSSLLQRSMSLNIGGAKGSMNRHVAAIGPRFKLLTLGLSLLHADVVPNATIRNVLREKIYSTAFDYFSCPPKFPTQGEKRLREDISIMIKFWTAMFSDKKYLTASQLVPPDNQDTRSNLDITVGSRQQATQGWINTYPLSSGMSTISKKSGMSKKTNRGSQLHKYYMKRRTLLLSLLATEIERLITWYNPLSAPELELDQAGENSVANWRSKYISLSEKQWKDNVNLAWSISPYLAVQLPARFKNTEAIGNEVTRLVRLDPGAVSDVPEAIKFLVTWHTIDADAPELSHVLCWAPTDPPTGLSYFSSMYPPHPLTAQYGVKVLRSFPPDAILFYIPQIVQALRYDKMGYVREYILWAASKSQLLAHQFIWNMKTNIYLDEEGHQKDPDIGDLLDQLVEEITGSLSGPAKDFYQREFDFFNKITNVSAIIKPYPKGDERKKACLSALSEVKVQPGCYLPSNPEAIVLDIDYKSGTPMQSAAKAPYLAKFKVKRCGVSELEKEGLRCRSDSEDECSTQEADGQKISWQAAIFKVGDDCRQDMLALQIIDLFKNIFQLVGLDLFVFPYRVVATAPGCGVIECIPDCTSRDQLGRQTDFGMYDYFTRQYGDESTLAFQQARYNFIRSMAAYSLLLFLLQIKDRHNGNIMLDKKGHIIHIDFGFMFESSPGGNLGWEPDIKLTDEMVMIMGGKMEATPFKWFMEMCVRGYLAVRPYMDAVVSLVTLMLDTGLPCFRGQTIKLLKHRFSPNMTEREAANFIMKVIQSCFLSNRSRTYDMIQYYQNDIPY
Phosphatidylinositol 4-kinase beta, sequence (Q9UBF8 whole entry, the tested form may be a part): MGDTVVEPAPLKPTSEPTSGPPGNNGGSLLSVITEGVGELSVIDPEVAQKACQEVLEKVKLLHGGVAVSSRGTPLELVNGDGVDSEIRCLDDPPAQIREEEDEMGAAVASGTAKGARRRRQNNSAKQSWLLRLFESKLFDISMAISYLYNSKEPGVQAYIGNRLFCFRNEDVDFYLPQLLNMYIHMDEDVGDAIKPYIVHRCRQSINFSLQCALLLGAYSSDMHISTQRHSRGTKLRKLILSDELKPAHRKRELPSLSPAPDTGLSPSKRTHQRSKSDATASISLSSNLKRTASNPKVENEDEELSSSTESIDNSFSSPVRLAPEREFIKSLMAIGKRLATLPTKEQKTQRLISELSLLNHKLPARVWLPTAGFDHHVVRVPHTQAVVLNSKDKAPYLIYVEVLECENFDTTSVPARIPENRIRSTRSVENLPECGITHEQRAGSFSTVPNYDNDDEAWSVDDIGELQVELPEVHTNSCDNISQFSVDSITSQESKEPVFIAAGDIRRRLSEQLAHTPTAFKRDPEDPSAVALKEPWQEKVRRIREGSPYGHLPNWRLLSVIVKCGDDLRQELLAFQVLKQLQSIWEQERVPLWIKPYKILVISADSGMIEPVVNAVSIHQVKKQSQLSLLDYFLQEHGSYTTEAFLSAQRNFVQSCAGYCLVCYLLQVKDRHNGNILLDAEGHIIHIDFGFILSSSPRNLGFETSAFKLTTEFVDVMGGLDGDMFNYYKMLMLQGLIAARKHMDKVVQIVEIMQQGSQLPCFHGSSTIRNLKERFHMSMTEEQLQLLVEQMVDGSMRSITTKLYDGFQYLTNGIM

As to `Nc1ncnc2c1ncn2[C@@H]1C[C@@]2(CO)CC[C@@H]1C2`, the IC50 in test [1] and in test [2] was > 50 µM in each case.
On to `CC(=O)Nc1cccc(-c2cc3ncnc(N)c3cc2C(N)=O)c1`, for which the IC50 in test [1] and in test [2] was > 50 µM each time.
Consider `NC(=O)c1cc2c(N)ncnc2cc1-c1cccc(CO)c1`, for which the IC50 in test [1] and in test [2] was > 50 µM each time.
As for `NC(=O)c1cc2c(N)ncnc2cc1-c1ccc2[nH]cnc2c1`, the IC50 in test [1] was > 50 µM.
On to `NC(=O)c1cc2c(N)ncnc2cc1-c1cncc(CO)c1`, for which the IC50 in test [3] was > 50 µM.
With `NC(=O)c1cc2c(N)ncnc2cc1-c1ccc(CO)o1`, in test [3], the half-maximal inhibitory concentration (IC50) is > 50 µM.
For `NC(=O)c1cc2c(N)ncnc2cc1-c1ccc2[nH]ccc2c1`, the IC50 in test [1] and in test [2] was > 50 µM throughout.
Consider `NC(=O)c1cc2c(N)ncnc2cc1-c1ccc2c(c1)CCO2`, for which the IC50 in test [1] and in test [2] was > 50 µM throughout.
Consider `CCCCc1cc(=O)oc2cc(OCC(=O)N[C@@H](Cc3c[nH]c4ccc(O)cc34)C(=O)O)ccc12`, for which the IC50 in test [3] was 1.46 µM; in test [1], > 50 µM; in test [2], > 50 µM.
`NC(=O)c1cc2c(N)ncnc2cc1-c1ccc2cc[nH]c2c1`: the 50% inhibitory concentration (IC50) in test [1] and in test [2] was > 50 µM in each case.
`NC(=O)c1cc2c(N)ncnc2cc1-c1ccc2c(c1)OCO2`: the IC50 in test [1] and in test [2] was > 50 µM each time.
For the compound `COC[C@H]1OC(=O)c2coc3c2[C@@]1(C)C1=C(C3=O)[C@@H]2CCC(=O)[C@@]2(C)C[C@H]1OC(C)=O` [WORTMANNIN], the IC50 in test [3] was > 30 µM; in test [1], 0.28 µM; in test [2], 0.44 µM.
